Patent US9283222B2 (priority 2006, dated 2016)

target: Recombinant Human Poly(ADP-Ribose) Polymerase (PARP), PARP-1 (Homo sapiens (Human), UniProt P09874); conditions: read-out: PARP-1 (Ki); Table 1; text calls the values EC50s
Sequence (P09874 whole entry): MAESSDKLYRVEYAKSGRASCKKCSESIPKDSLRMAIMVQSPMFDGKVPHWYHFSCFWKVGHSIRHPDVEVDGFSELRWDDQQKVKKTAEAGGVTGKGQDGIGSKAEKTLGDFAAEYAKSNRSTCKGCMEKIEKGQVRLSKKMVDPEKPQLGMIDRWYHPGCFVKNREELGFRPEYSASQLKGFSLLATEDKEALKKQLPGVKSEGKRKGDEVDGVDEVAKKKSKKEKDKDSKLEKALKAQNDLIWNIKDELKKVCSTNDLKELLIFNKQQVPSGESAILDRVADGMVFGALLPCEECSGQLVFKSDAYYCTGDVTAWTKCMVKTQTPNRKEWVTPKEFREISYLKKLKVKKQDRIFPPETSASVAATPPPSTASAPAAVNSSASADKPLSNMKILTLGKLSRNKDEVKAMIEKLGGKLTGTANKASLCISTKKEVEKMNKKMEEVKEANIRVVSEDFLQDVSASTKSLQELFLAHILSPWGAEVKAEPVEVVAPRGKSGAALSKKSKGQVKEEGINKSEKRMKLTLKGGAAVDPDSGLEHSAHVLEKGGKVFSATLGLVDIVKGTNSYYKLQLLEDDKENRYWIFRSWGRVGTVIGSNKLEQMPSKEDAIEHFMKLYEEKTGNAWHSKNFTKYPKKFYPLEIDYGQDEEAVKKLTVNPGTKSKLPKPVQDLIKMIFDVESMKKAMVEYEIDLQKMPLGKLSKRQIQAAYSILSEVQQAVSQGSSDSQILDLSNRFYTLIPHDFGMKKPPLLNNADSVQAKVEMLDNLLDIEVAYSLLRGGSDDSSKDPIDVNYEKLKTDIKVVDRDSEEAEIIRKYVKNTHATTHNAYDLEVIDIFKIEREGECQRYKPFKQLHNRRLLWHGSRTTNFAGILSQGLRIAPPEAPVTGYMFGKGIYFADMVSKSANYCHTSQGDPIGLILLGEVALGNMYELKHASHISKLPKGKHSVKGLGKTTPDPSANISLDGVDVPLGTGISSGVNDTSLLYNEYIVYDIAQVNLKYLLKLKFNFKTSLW

| SMILES | Ki |
| --- | --- |
| CC(C)n1nnc2cc(C(=O)N3CCN(C(=O)c4cc(Cc5n[nH]c(=O)c6c5NCCC6)ccc4F)CC3)ccc21 [Example 643] | 1.2 nM |
| CN(C)S(=O)(=O)Nc1cccc(Cc2n[nH]c(=O)c3c2CCCC3)c1 [Example 97, N,N-dimethyl-N′-(3-((4-oxo-3,4,5,6,7,8-hexahydrophthalazin-1-yl)methyl)phenyl)sulfamide] | 390 nM |
| Cc1ccnc(SCC(=O)Nc2cccc(Cc3n[nH]c(=O)c4c3CCCC4)c2)n1 [Example 167, 2-((4-methylpyrimidin-2-yl)thio)-N-(3-((4-oxo-3,4,5,6,7,8-hexahydrophthalazin-1-yl)methyl)phenyl)acetamide] | 56 nM |
| CN(C)CCCNC(=O)c1cccc(Cc2n[nH]c(=O)c3c2CCCC3)c1 [Example 314, N-(3-(dimethylamino)propyl)-3-((4-oxo-3,4,5,6,7,8-hexahydrophthalazin-1-yl)methyl)benzamide] | 32 nM |
| CC(C)Oc1ccc(C(=O)Nc2cccc(Cc3n[nH]c(=O)c4c3CCCC4)c2)cc1 [Example 188, 4-isopropoxy-N-(3-((4-oxo-3,4,5,6,7,8-hexahydrophthalazin-1-yl)methyl)phenyl)benzamide] | 185 nM |
| CC(=O)N1CCC(C(=O)Nc2cccc(Cc3n[nH]c(=O)c4c3CCCC4)c2)CC1 [Example 155, 1-acetyl-N-(3-((4-oxo-3,4,5,6,7,8-hexahydrophthalazin-1-yl)methyl)phenyl)piperidine-4-carboxamide] | 126 nM |
| CCOC(=O)N1CCN(C(=O)c2cc(Cc3n[nH]c(=O)c4c3NCCC4)ccc2F)CC1 [Example 666, ethyl 4-{2-fluoro-5-[(5-oxo-1,2,3,4,5,6-hexahydropyrido[2,3-d]pyridazin-8-yl)methyl]benzoyl}piperazine-1-carboxylate] | 1.5 nM |

Next, values leading:

| Ki | SMILES |
| --- | --- |
| 2.5 nM | O=C(CN1CCN(C(=O)c2cc(Cc3n[nH]c(=O)c4c3CCCC4)ccc2F)CC1)N1CCCC1 [Example 537, 4-(4-fluoro-3-{[4-(2-oxo-2-pyrrolidin-1-ylethyl)piperazin-1-yl]carbonyl}benzyl)-5,6,7,8-tetrahydrophthalazin-1(2H)-one] |
| 18 nM | CC(c1ccc(F)c(N2CCCC2=O)c1)c1n[nH]c(=O)c2c1CCCC2 (stereo not shown) [Example 413, 4-(1-(4-fluoro-3-(2-oxopyrrolidin-1-yl)phenyl)ethyl)-5,6,7,8-tetrahydrophthalazin-1(2H)-one] |
| 0.8 nM | O=C1CCCC(=O)N1c1cc(Cc2n[nH]c(=O)c3c2CCCC3)ccc1F [Example 303, 1-(2-fluoro-5-((4-oxo-3,4,5,6,7,8-hexahydrophthalazin-1-yl)methyl)phenyl)piperidine-2,6-dione] |
| 44 nM | CCCC(=O)Nc1ccc(Cl)c(Cc2n[nH]c(=O)c3c2CCCC3)c1 [Example 99] |
| 124 nM | O=C(Nc1ccc(-c2ccccc2)cc1)c1cccc(Cc2n[nH]c(=O)c3c2CCCC3)c1 [Example 337, N-1,1′-biphenyl-4-yl-3-((4-oxo-3,4,5,6,7,8-hexahydrophthalazin-1-yl)methyl)benzamide] |
| 7 nM | CN(C(=O)c1cc(Cc2n[nH]c(=O)c3c2NCCC3)ccc1F)C1CCN(C(=O)c2cccnc2)CC1 [Example 710, 2-fluoro-N-methyl-5-[(5-oxo-1,2,3,4,5,6-hexahydropyrido[2,3-d]pyridazin-8-yl)methyl]-N-[1-(pyridin-3-ylcarbonyl)piperidin-4-yl]benzamide] |
| 0.6 nM | O=C(c1ccc(O)nc1)N1CCN(C(=O)c2cc(Cc3n[nH]c(=O)c4c3NCCC4)ccc2F)CC1 [Example 649] |
| 4 nM | O=C(NC1CCN(C(=O)c2ccccn2)CC1)c1cc(Cc2n[nH]c(=O)c3c2NCCC3)ccc1F [Example 736, 2-fluoro-5-[(5-oxo-1,2,3,4,5,6-hexahydropyrido[2,3-d]pyridazin-8-yl)methyl]-N-[1-(pyridin-2-ylcarbonyl)piperidin-4-yl]benzamide] |
| 1.7 nM | COc1ccc(C(=O)C2CCN(C(=O)c3cc(Cc4n[nH]c(=O)c5c4NCCC5)ccc3F)CC2)cc1 [Example 610, 8-(4-fluoro-3-{[4-(4-methoxybenzoyl)piperidin-1-yl]carbonyl}benzyl)-2,3,4,6-tetrahydropyrido[2,3-d]pyridazin-5(1H)-one] |
